The text below walks through data of article PMC8617627, “Novel DYRK1A Inhibitor Rescues Learning and Memory Deficits in a Mouse Model of Down Syndrome” (Pharmaceuticals, 2021).

Like-named read-outs stand apart in the source and are kept apart here.

Common to all, as to test: Kinase profile (33P ATP filter binding)
Holding throughout (assay type): biochemical

In one assay the target is AMPK (hum) (Homo sapiens, UniProt Q13131). Conditions: read-out: Remaining protein kinase activity.
In another assay the target is Aurora B (Homo sapiens, UniProt Q96GD4). As to conditions: read-out: Remaining protein kinase activity.
Sequence of Aurora B (Q96GD4 whole entry): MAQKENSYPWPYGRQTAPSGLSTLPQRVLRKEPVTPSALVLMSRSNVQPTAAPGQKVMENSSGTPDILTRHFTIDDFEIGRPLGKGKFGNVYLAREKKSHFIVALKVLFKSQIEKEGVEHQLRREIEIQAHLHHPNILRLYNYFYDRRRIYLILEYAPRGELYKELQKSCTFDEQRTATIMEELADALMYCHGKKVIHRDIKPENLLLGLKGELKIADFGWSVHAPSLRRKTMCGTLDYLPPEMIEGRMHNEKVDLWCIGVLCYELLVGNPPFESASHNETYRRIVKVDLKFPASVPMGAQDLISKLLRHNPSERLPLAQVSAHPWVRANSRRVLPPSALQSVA
The next assay concerns the target CDK9-Cyclin T1 (Homo sapiens, UniProt P50750). As to conditions: read-out: Remaining protein kinase activity.
The target in another assay is T1, CHK1 (Homo sapiens, UniProt O14757).
T1 sequence (O14757 1-476): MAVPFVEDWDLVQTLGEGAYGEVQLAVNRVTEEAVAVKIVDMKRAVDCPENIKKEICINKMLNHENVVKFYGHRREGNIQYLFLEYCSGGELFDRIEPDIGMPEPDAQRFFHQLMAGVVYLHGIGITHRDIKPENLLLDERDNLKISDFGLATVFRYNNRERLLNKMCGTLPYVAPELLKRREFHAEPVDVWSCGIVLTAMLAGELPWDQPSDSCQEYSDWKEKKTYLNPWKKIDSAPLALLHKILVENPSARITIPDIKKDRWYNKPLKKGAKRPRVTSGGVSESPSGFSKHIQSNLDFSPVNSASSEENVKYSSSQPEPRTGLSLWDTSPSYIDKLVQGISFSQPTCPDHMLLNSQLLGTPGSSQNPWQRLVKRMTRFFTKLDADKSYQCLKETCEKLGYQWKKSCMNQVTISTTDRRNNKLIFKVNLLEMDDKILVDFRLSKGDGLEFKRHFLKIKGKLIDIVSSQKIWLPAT

For the next assay, the target named is CK1γ2 (Homo sapiens, UniProt P78368).
Another assay deals with ERK5 (Homo sapiens, UniProt Q13164). Conditions: read-out: Remaining protein kinase activity.
Sequence of ERK5 (Q13164 whole entry, species assumed): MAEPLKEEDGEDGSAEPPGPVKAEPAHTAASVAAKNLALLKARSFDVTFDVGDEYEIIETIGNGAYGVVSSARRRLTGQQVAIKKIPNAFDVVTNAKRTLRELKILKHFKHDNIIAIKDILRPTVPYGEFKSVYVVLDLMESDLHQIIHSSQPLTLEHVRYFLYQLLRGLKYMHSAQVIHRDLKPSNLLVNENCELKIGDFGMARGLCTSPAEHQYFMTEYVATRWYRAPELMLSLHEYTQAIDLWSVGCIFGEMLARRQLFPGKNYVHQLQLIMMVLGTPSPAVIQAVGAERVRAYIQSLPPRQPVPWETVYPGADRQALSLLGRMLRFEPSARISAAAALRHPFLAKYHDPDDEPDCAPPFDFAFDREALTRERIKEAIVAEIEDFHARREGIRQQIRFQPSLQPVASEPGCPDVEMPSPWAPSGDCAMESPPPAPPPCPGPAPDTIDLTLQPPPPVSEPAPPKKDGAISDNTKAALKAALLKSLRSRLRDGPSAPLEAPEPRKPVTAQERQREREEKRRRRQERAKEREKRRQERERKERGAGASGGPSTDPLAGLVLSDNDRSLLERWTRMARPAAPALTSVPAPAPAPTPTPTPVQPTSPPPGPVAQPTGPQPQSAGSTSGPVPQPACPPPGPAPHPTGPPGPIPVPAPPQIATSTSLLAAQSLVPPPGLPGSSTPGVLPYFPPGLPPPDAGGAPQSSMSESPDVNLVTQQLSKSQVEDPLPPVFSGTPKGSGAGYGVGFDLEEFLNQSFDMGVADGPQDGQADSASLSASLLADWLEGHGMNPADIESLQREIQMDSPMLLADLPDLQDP
Another assay deals with HIPK1 (Homo sapiens, UniProt Q86Z02). Conditions: read-out: Remaining protein kinase activity.
Sequence of HIPK1 (Q86Z02 whole entry): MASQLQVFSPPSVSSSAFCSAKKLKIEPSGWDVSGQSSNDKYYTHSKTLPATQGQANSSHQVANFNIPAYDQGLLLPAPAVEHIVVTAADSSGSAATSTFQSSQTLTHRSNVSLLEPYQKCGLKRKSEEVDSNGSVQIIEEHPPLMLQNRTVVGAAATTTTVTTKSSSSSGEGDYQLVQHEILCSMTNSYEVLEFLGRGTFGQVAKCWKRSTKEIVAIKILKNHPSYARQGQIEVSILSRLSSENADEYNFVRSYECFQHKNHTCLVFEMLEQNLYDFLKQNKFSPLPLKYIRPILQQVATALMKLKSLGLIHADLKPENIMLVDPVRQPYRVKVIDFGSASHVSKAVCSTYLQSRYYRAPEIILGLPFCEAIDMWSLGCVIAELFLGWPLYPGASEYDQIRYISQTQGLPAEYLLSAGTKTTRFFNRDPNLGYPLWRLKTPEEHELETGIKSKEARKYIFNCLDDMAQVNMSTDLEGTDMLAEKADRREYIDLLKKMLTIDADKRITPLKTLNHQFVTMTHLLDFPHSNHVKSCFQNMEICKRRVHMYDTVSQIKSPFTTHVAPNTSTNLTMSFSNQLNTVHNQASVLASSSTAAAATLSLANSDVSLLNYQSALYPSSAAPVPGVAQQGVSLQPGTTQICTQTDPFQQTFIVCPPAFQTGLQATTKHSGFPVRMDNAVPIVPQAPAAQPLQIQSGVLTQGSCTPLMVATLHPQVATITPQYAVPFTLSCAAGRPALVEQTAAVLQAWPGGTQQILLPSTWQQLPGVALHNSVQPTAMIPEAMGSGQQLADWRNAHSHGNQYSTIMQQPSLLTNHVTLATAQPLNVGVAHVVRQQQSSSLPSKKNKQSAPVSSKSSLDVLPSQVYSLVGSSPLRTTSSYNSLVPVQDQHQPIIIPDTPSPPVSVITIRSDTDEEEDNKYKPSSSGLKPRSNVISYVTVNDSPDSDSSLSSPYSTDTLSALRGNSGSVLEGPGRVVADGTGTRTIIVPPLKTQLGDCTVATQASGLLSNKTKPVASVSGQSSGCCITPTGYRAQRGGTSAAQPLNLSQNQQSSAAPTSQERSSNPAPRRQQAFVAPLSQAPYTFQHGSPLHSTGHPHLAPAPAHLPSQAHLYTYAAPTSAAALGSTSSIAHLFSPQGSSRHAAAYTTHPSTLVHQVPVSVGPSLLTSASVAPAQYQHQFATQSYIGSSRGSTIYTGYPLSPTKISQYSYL
A further assay deals with T2, LKB1 (Homo sapiens, UniProt Q15831).
T2 sequence (Q15831 1-433): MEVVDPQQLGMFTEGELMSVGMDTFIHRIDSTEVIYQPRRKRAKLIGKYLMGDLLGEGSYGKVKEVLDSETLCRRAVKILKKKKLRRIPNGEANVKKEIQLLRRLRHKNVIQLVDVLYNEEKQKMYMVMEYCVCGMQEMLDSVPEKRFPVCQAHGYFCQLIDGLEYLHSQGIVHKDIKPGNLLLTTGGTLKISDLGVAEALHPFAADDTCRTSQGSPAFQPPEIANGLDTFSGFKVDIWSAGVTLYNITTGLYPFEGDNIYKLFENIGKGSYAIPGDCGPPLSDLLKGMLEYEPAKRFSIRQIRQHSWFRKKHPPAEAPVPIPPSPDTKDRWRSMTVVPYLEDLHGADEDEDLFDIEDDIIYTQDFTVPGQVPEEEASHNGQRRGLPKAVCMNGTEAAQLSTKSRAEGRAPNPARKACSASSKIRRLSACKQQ
T2 sequence (Q7RTN6 1-431 partner): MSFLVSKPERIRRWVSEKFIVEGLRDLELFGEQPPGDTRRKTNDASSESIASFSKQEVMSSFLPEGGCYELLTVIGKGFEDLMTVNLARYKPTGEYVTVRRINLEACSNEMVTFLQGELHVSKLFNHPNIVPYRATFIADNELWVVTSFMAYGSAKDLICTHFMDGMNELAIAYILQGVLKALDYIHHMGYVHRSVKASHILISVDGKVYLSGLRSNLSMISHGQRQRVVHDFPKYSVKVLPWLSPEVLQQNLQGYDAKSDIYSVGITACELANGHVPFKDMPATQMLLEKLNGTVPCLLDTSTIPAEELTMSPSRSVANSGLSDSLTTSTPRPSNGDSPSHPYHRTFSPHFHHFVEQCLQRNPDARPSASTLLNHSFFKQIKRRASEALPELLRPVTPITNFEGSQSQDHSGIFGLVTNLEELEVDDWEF
T2 sequence (Q9Y376 1-341 partner): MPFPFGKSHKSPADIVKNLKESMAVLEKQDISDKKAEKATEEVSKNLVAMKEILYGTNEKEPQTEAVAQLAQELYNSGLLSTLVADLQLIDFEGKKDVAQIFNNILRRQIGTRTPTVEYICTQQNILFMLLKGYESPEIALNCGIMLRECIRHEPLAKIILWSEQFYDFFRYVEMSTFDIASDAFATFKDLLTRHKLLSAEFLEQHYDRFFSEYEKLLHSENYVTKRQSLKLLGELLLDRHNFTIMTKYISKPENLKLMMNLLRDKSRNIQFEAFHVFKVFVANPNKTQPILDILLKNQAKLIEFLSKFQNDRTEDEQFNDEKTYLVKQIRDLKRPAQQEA
As to conditions: read-out: Remaining protein kinase activity.

The next assay concerns the target MKK2 (Homo sapiens, UniProt P36507). As to conditions: read-out: Remaining protein kinase activity.
The next assay addresses MLK3 (Homo sapiens, UniProt Q16584).
The next assay concerns the target PKBa (Homo sapiens, UniProt P31749). As to conditions: read-out: Remaining protein kinase activity.
For another assay, the target named is SIK2 (Homo sapiens, UniProt Q9H0K1). As to conditions: read-out: Remaining protein kinase activity.
Sequence of SIK2 (Q9H0K1 whole entry): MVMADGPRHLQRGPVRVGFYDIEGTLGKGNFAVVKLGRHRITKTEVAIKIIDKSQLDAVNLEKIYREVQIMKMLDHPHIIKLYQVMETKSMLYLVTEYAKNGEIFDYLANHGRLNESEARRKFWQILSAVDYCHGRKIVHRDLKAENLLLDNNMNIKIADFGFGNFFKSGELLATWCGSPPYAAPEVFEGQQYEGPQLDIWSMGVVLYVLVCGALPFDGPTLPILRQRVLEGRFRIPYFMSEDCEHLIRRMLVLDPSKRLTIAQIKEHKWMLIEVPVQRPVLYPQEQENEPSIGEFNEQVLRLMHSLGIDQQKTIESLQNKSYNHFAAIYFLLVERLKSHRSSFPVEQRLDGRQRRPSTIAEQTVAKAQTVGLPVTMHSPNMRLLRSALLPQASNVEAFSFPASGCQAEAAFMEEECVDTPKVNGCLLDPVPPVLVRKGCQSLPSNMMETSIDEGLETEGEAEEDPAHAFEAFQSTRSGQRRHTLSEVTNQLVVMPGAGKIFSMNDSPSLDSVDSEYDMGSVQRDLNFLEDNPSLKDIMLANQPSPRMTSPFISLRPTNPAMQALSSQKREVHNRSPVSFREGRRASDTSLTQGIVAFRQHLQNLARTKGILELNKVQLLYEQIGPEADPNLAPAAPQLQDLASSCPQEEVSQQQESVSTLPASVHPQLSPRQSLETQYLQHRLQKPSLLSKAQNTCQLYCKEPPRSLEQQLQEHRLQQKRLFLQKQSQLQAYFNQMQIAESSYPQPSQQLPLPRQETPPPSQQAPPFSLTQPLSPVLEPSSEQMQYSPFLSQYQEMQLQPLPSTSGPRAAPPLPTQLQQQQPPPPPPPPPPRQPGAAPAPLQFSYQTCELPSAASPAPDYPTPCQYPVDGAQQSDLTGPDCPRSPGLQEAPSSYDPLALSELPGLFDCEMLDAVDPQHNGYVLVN

Sequence of MKK2 (P36507 whole entry, species assumed): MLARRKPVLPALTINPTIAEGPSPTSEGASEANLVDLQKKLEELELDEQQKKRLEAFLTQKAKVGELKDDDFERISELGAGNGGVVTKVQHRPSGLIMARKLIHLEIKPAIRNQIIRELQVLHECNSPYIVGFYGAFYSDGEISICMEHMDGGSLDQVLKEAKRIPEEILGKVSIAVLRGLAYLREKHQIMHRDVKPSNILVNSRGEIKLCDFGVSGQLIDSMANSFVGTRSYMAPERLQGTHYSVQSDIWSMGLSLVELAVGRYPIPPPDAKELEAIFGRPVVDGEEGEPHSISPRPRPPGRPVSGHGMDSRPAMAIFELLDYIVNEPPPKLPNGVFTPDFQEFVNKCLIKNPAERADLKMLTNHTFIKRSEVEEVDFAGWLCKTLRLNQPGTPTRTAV
Sequence of PKBa (P31749 whole entry): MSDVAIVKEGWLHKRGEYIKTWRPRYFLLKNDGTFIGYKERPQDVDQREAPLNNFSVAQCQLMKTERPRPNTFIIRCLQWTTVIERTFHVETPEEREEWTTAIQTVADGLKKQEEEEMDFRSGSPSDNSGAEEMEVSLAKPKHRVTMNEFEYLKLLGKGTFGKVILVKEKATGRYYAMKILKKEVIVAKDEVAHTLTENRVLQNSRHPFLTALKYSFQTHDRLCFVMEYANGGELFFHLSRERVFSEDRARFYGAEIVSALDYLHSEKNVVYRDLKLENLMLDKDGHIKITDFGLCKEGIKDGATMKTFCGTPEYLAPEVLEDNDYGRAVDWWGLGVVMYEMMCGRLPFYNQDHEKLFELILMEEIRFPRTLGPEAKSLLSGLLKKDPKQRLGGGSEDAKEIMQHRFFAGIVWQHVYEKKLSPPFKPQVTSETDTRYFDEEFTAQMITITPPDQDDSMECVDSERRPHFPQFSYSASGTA
Sequence of MLK3 (Q16584 whole entry): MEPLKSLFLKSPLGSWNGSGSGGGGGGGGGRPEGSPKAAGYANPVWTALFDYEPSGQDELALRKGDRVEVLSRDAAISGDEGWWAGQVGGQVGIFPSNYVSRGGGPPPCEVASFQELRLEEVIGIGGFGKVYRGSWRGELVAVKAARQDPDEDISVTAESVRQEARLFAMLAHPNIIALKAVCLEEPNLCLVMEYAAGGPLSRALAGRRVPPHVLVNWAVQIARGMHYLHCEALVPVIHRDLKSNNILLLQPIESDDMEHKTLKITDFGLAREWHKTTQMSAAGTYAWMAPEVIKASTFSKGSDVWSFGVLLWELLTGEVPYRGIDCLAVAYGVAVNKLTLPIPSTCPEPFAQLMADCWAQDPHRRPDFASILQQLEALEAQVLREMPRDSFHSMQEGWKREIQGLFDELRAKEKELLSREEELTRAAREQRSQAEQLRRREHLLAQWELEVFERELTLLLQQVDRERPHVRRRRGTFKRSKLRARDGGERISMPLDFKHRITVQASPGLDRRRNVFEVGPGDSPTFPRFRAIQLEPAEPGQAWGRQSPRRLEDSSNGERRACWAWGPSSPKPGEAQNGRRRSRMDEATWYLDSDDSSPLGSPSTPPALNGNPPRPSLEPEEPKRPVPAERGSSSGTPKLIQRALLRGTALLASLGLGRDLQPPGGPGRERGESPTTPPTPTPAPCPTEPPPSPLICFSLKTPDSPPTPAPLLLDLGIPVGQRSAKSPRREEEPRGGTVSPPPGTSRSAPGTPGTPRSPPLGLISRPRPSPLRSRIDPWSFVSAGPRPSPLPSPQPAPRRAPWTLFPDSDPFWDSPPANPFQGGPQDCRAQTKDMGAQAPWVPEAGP

In the case of `COc1ccc2sc(-c3cncc(N)c3)nc2c1` [compound 1, 5-(5-Methoxybenzo[d]thiazol-2-yl)pyridin-3-amine], the remaining activity at 1 µM on AMPK (hum) (AMPK (hum), 1 μM) stood at 107%; at Aurora B (Aurora B, 1 μM) it was 107%; at CDK9-Cyclin T1 (CDK9-Cyclin T1, 1 μM) it was 113%; at ERK5 (ERK5, 1 μM) it was 66%; at HIPK1 (HIPK1, 1 μM), 116%; on LKB1 (LKB1, 1 μM), 109%. For the same molecule, the remaining activity at 1 µM is 81% on MKK2 (MKK2, 1 μM); 120% on PKBa (PKBa, 1 μM); 102% at SIK2 (SIK2, 1 μM). Moreover, the remaining activity at 100 µM on AMPK (hum) (AMPK (hum), 100 μM) came out at 46%; at Aurora B (Aurora B, 100 μM), 21%; on CDK9-Cyclin T1 (CDK9-Cyclin T1, 100 μM), 83%; at ERK5 (ERK5, 100 μM) it was 37%; on HIPK1 (HIPK1, 100 μM) it was 36%; at LKB1 (LKB1, 100 μM), 161%. Further, the remaining activity at 100 µM at MKK2 (MKK2, 100 μM) amounted to 62%; on PKBa (PKBa, 100 μM), 72%; at SIK2 (SIK2, 100 μM) it was 10%. Further, the “Remaining protein kinase activity” value came out at 101% on CHK1 (1 μM); 86% on CHK1 (100 μM); 108% on CK1γ2 (1 μM); 24% on CK1γ2 (100 μM); 101% on MLK3 (1 μM); 29% at MLK3 (100 μM).

Regarding `COc1ccc2sc(-c3cncc(NC(C)=O)c3)nc2c1` [PST-001, N-(5-(5-Methoxybenzo[d]thiazol-2-yl)pyridin-3-yl)acetamide], the remaining activity at 1 µM worked out at 99% at AMPK (hum); 106% on Aurora B; 122% at CDK9-Cyclin T1; 72% at ERK5; 113% on HIPK1; 123% on LKB1. Also, the remaining activity at 1 µM came out at 75% on MKK2, 116% at PKBa and 112% at SIK2. The remaining activity at 100 µM is 69% on AMPK (hum); 24% at Aurora B; 120% at CDK9-Cyclin T1; 51% on ERK5; 113% on HIPK1; 150% at LKB1. Further, the results for the remaining activity at 100 µM on MKK2, on PKBa and on SIK2 were 100%, 106% and 65%, respectively. In addition, the “Remaining protein kinase activity” value is given as 104% at CHK1 (1 μM); 115% at CHK1 (100 μM); 114% on CK1γ2 (1 μM); 101% at CK1γ2 (100 μM); 109% at MLK3 (1 μM); 60% at MLK3 (100 μM).

The remaining activity is the signal under treatment as a percentage of the control signal.
